The subject of one data set is N2 WT C. elegans. In words: Pharyngeal pumping rate, N2. The conditions noted are these: increasing concentrations of SA, measured every fifth day; p<0.05. The format is in vivo. From the text: To quantify this, the present inventors chose both a biochemical endpoint (lipofuscin autofluorescence) and a behavioral measure (pharyngeal pumping) that change predictably with aging and are associated with healthspan. The accumulation in the nematode intestinal epithelium of autofluorescent lipofuscin granules, a heterogeneous mixture of oxidized and crosslinked lipids and proteins and advanced glycation end products, is a known conserved phenomenon observed to increase with age. Visualization of lipofuscin granules is often used as an age-related assessment of healthspan. Lipofuscin autofluorescence were quantified over time (every 5 days) in N2 adult nematodes (10-20 per colony) in the presence of increasing doses of SA. […] For a behavioral/functional measurement of health, pharyngeal pumping rates were quantified. […] Pharyngeal pumping rates quantified in WT N2 worms established on OP50-seeded NGM agar plates with increasing concentrations of SA. The frequency of pharyngeal pumping was measured and recorded every fifth day as the animals aged.
C. elegans pharyngeal pumping rate assays were performed on 60-mm agar plates with bacterial lawns at room temperature. […] The number of contractions in the terminal bulb of the pharynx was counted for 20 s and then plotted.

The test system of data set [1] is mice. The conditions noted are these: cited from earlier work.
Data set [2] deals with mice. Conditions: administering SA in mice; cited from earlier work.
The subject of data set [3] is VC199 non-functional SIR-2.1 mutants. The data set can be described thus: Real-time RT-PCR of ets-7, VC199. The conditions noted are these: highest dose of SA, Day 15 VC199; p<0.01. The format is in vivo, C. elegans. From the text: First, to validate the microarray results, the present inventors performed real-time RT-PCR on four genes, siah-1, sma-4, F13D12.6, and ets-7 (FIG. 6B). […] Messenger RNA levels for siah-1 and sma-4 were decreased by nearly 25%, as well as F13D12.6 and ets-7 were increased by nearly 25% by SA administration (p<0.05). Pathway Analysis using Gene Ontology (GO) with WEB-based Gene SeT Analysis Toolkit (WEBGESTALT <http://bioinfo.vanderbilt.edu/webgestalt/>) highlighted the metabolic process, lipid metabolic process, proteolysis pathways among many others as being altered favorably by the administration of SA (see Supplemental Data). From the array data confirmed by RT-PCR, the present inventors identified the ETS class transcription factor ETS-7 as a protein of interest. ETS factors are known to be involved in regulating lipid metabolism and regulate lifespan in both Drosophila melanogaster and C. elegans. […] In order to test this, the present inventors carried out real-time RT-PCR quantification of ets-7 in non-functional SIR-2.1 mutant nematodes treated with increasing doses of SA (FIG. 6E).
Total RNA was isolated via the Trizol method, as described previously. […] Quantitative real time PCR (Bio-Rad) was conducted using TaqMan Gene Expression Assay Probes (Life Technologies) for each gene. […]

The subject of the next data set is daf-16(mu86). In words: Longevity assay, daf-16 gene knockout mutant strain. In kind it is in vivo, C. elegans. Conditions: SA from day 1 of adulthood; P<0.01 versus vehicle control. The protocol:
C. elegans strains were cultured at 20° C. on standard nematode growth media (NGM) agar plates seeded with Escherichia coli strain NA22. The following strains were used in this work: wild-type C. elegans Bristol strain (N2), sir-2.1(ok434) IV, F19F10.5(ok888) V, and daf-16(mu86). Strains were obtained from the Caenorhabditis Genetics Center (University of Minnesota, St. Paul, Minn.). For generating cultures of 15-day-old (Day 15) adult worms, synchronized late-stage L4s/early young adult worms were transferred to peptone enriched 15 cm plates containing UV-irradiated OP50 E. coli and 0.12 mM 5-fluoro-2′-deoxyuridine (FUDR) to inhibit progeny production[88] with or without drug until harvest.
Survival cultures were grown on 60-mm agar plates; after the late-stage L4/young adult molt, approximately 100 adults were transferred onto SA-OP50-seeded NGM plates. Salicylamine drug plates were made fresh before transfer by spreading SA on top of the agar. […] Worms were maintained at 20° C. and live worms were counted during transfer to freshly made SA-OP50-NGM agar plates every 2-3 days. Survival was scored as movement upon slight touch with the platinum wire. […]
FIG. 7 (S1). […] Survival was assessed every 2 days until all the worms died. […] Data are expressed as means±SEM from four independent experiments. *P<0.01 as compared to vehicle control.

As for `NCc1ccccc1O` [SA, salicylamine], the “age-associated decline in pharyngeal pumping rate” value in the data set on N2 WT C. elegans is given as “dose-dependent protection”. Further, the “tolerability, adverse events” value in the data set with mice [1] (approximately one year, via drinking water) was “no evidence of intolerance and no evidence of excess adverse events”. The tumor formation result in the data set on mice [1] (long-term SA treatment) was “No excess tumor formation”. For the same compound, in the data set with mice [2], the “development of angiotensin II-induce hypertension” value was “prevents”. Moreover, in data set [3], the “increase in ets-7 mRNA expression” value came to 442%. In the data set on daf-16(mu86), the “maximum and median lifespan” value is “increased maximum and median lifespan”.

(Values after patent US11633370B2, “Use of scavengers of reactive gamma-ketoaldehydes to extend cell lifespan and healthspan” (Vanderbilt University, priority 2016, dated 2023).)
